The results in this text go back to patent publication US20050261246A1, “Methods for treating inflammatory and autoimmune diseases” (priority 2004, published 2005).

The subject of assay [1] is VEGF production in human cancer cell lines. The assay can be described thus: VEGF production in human cancer cell lines (ELISA). It counts as cell-based. The method, then: (A) Effect of SNS on VEGF production was analyzed in two cancer cell lines (both supernatants and cell lysates). (B) The supernatant from control and drug treated H460 cells was analyzed for the level of VEGF (pg/ml). C. […] Statistical analyses were performed using one-way ANOVA.
As discussed above, SNS and pancratastatin were originally synthesized as an anti-cancer agent. The inventors also examined the effect of SNS and pancratastatin on the production of VEGF in human cancer cell lines (FIG. 2). […] This analysis had been performed at least 3-5 times depending on the cell lines and drug used, with statistical analysis performed using one-way ANOVA.
For orientation: An ELISA detects its analyte on a solid surface through an enzyme-linked reagent.

Assay [2] has as its system NO production in LPS-stimulated RAW 264.7 cells. The assay is described as follows: NO production in LPS-stimulated RAW264.7 macrophage cell line (Griess reaction). The assay is classed as cell-based, mouse. To be noted: pre-treated with different concentrations, then 1 ng/ml LPS. Here is the method:
Cells were pre-treated with different concentrations of SNS and then followed by stimulation with LPS. C is medium control. LPS, positive control without SNS treatment. The statistical analysis was performed using one-way ANOVA.
In further tests, we investigated the effect of SNS on the production of NO in a mouse macrophage cell line, RAW264.7. Cells were pre-treated with different concentrations of SNS and subsequently stimulated with 1 ng/ml of LPS. The level of NO production was measured by a spectrophotographic method using the Griess reaction. […] “C” is medium control, and “LPS” is positive control without SNS treatment. This analysis had been performed at least 3-5 times depending on the cell lines and drug used, with statistical analysis performed using one-way ANOVA.
(In general: Griess reagent forms a coloured azo dye with nitrite.)

Assay [3] concerns Lewis rats with Adjuvant-Induced Arthritis. The assay is described as follows: Adjuvant-induced arthritis (AA) rat model: footpad width, radiographs, spleen weight. The assay is classed as in vivo. The method, then:
Summary: Adjuvant-Induced Arthritis (“AA”) was induced by intradermal injection of complete Freund's adjuvant (CFA) into the base of the tail of Lewis rats. Controls received intradermal injections of the arthritogenic antigen, M. butyricum suspended in saline. […] AA and control rats were given once-daily intraperitoneal (i.p.) injections of narcistatin (5 mg/Kg/day, in 250 μl sterile saline), vehicle, or no treatment initiated at disease onset and continued through severe disease.
Adult male Lewis rats (200-250 g) were purchased from Charles River Laboratories, Raleigh, N.C. and housed two per cage. The animals were allowed to acclimate to the Sun Health Research Institute's vivarium for 7 days prior to the start of the experiment. The animals were maintained on a 12-h off/on light schedule. For AA rats rodent Diet (Purina Lab Diet 5001) was placed in the bottom of the cage and water was supplied using long-stemmed sipper tubes for easy access to food and water. […] Animals were weighed and observed daily to ensure adequate weight gain and good general health. Body weights and footpad measures were started 1 week prior to the first adjuvant injection to acclimate the animals to these mild stresses and obtain baseline data. Other than the development of arthritis, the good health of the animals was maintained throughout the course of the experiments. Protocols for the use and care of the animals in the study were approved prior to beginning the experiments by the Sun Health Research Institute Animal Use and Care Committee and complied with NIH guidelines for the humane use and care of research animals. Dorsoplantar footpad measurements were completed every other day. Prior to sacrifice the animals were given a 1.0 ml intraperitoneal (i.p.) injection of 8% chloral hydrate in sterile saline and radiographs were taken of their hind limbs to assess disease severity. The animals were then sacrificed using an overdose of chloral hydrate.
Sodium narcistatin was synthesized as previously described (27). CFA was prepared by emulsifying Mycobacterium butyricum (0.03 g dried and heat killed; Difco, Detroit, Mich. in 10 ml sterile mineral oil). M. butyricum (0.03 g) also was suspended in 10 ml sterile saline. The CFA and M. butyricum in saline were prepared by grinding the M. butyricum with a mortar and pestle until the lyophilized bacteria had turned from a light beige to an eggshell white powder. The mineral oil or saline was then slowly worked into the heat-killed bacteria using the mortar and pestle. The suspensions were treated with a sonic dismembraner for 5 min to ensure that the bacterial cell wall remained suspended in the mineral oil or saline until the animal injections. While there is variability in severity of disease development between the batches of adjuvant, there is very little variability within each batch. All animals in each experiment were challenged with the same preparation of adjuvant and 100% of the animals developed arthritis with similar timing of disease onset.
Lewis rats were randomly assigned into five experimental groups of four animals per group. The experimental groups were 1) saline/M. Butyricum suspended in saline (non-arthritic; control for drug and antigen challenge), 2) sodium narcistatin/M. Butyricum suspended in saline (non-arthritic; drug control for antigen challenge), 3) no treatment-CFA (arthritic; control for stress of injections), 4) saline-CFA (arthritic; control for drug treatment), and 5) sodium-narcistatin-CFA (arthritic) treatments. The experiment was completed with an N=4 then repeated with an additional N=4. The data from each group in the first and repeated experiment were compared. No statistical differences between the findings from these repeat experiments were found; therefore, the data was combined to give an N=8 for each experimental group. CFA or saline/M. Butyricum injections were given on experimental day 1. […]

Assay [4] concerns TNFα production. The assay is described as follows: TNFα production from splenic cultures of Balb/c mice treated with SNS. The assay is classed as in vivo, mouse. As to conditions: non-CAIA Balb/c mice treated 5 days, p<0.01. The method, then:
Balb/c mice (n=5) were treated i.p. with SNS at 5 mg/Kg or with PBS for 5 consecutive days. Spleen were isolated on the next day after the last SNS injection and the splenocytes were stimulated with anti-CD3 antibody or LPS for 24 hrs, and supernatant were analyzed for TNF-α production.
Isolated splenic cells were cultured with either immobilized […] (50 ug/ml) or 1 ug/ml LPS for […]. Cells without any stimulation were included as control. The supernatants from these cultures were analyzed for TNFα using BD™ CBA Mouse Inflammatory Kit (BD Biosciences), according to the manufacture's procedure. The average TNF concentration in each culture was derived from 2-3 independent experiments of 4-5 mice per group per experiment. No arthritis was induced in these experiments. […] Thus, TNFα production was reduced in the splenic culture of SNS-treated mice, in response to T cell activation by anti-CD3 antibody.

Setting [5] is: AA rats, 5 mg/Kg/day i.p., vs vehicle treated AA rats.

For the molecule `O=C1N[C@@H]2C(=C[C@H](O)[C@H]3OP(=O)(O)O[C@H]32)c2cc3c(c(O)c21)OCO3` [SNS, sodium narcistatin], the “VEGF production, narcistatin compared with pancratistatin” value in assay [1] is “comparable inhibition on VEGF production”. Further, the “effect on VEGF production/secretion” value in assay [1] (human cancer cell lines, ELISA) was “significantly suppresses the secretion of VEGF”. Besides, the NO production entry in assay [2] was “concentration-dependent inhibition of NO production”. For the same molecule, in assay [3] (setting [5]), the “reduction of bone loss, as measured by radiographic analysis” value was about 50% and the “reduction of hind limb inflammation, as measured by dorsoplantar width” value was about 70%. Also, the “time of disease onset” value in assay [3] (CFA-challenged rats) is “did not change the time of disease onset”. Moreover, the “soft tissue swelling of the dorsoplantar footpads” value in assay [3] (CFA-challenged rats, day 23 to day 28 post-immunization, vs vehicle-treated arthritic rats) was “significantly decreased the soft tissue swelling”. Besides, in assay [3] (arthritic rats, daily treatment day 10 through day 28, photomicrographs day 28), the “redness and soft tissue swelling of hind limbs” value was “dramatically decreased the redness and soft tissue swelling”. In addition, the “bone destruction and cartilage loss in radiographs” value in assay [3] (arthritic rats, day 28, vs saline-treated arthritic rats) is “decreases in bone destruction (mainly osteoporosis and erosions) and cartilage loss”. Besides, in assay [3] (arthritic rats, day 28, vs vehicle or no treatment, P<0.05), the “radiographic scores of ankle joints” value is listed as “significantly lower radiographic scores”. The “spleen weight, arthritic rats” value in assay [3] (day 28, vs Saline-CFA) is recorded as “blocked this increase in spleen weight”. Moreover, the “spleen weight, antigen-challenged non-arthritic rats” value in assay [3] (day 28, vs saline) is on record as “did not differ”. Further, the “footpad width in non-arthritic animals” value in assay [3] (non-arthritic, vehicle vs drug) is “no differences in footpad width”. Further, in assay [4], the “TNFα in splenic cultures stimulated with anti-CD3” value is recorded as “significant reduction of TNFα”.
